One compound from patent publication US11793983B2, “Sonodynamic therapy using microbubbles and pulsed wave ultrasound methods and systems” (University of Pittsburgh-Of the Commonwealth System of …, priority 2017, dated 2023) can be followed below.

This series concerns Mouse squamous cell carcinoma cells SCC-VII. Put plainly: Cytotoxicity in vitro with ultrasound, alamarBlue cell viability assay. Type of series: cell-based. The note with it: +US, ISAPA=1 W/cm^2, 10% duty cycle, 2 min, 24 hours after treatment. The procedure: Mouse squamous cell carcinoma cells SCC-VII were cultured in RPMI 1640 medium supplemented with 10% fetal bovine serum (FBS), […] and 200 IU/mL penicillin (Gibco, ThermoFisher Scientific, Waltham, Mass.). Cells were harvested and suspended in a concentration of 1×10^6 cells/mL using serum free RPMI-1640 medium. Every 2 mL of cell suspension was transferred to 14 mL Falcon round-bottom polystyrene tubes. Immediately before the US treatment, the suspension was supplemented together with various concentrations of MBPpIX. US (1 MHz, 10% duty cycle) exposure time for each acoustic condition is 2 min. During exposure, the sample tube was gently shaking occasionally (every 10 sec) to improve mixing and to provide uniform exposure. Free PpIX (first dissolved in DMSO; final concentration: 2.9 μM) or PpIX liposome (precursor of MBPpIX, with equivalent PpIX concentration of 2.9 μM) were used for comparison and cells not treated were used as controls (NT). After treatment procedure, 300 μL of the cell suspension was transferred to a 24 well plate prefilled with 2 mL cell culture medium, and the cells were incubated at 37° C. for 24 hours. Cell viability was then measured using alamarBlue cell viability assay. Cell morphology was examined with bright field microscopy (IX81, Olympus, Center Valley, Pa.). […]
A general note: Alamar Blue is a resazurin reagent that responds to reducing activity.

A word on the cell viability: it is the share of living cells, or the viability signal relative to a control. Read a high cell viability as better survival.

As for `C=CC1=C(C)c2cc3[nH]c(cc4nc(cc5[nH]c(cc1n2)c(C)c5CCC(=O)O)C(CCC(=O)O)=C4C)c(C)c3C=C` [PpIX, protoporphyrin IX], the cell viability was 4±3%.
